Reference: US8765688B2, “Anti-dandruff compositions containing peptides” (priority 2007, dated 2014)
Ends that are not written are not given here.

Experiments:
[1] = system: Brevibacterium epidermidis; experiment: Growth inhibition of Gram-positive bacteria by P18 (optical density at 620 nm); assay type: cell-based; settings: for optical density at 620 nm: B. epidermidis suspension, 25 μM P18 solution, mean of 8 mixtures
Protocol: (§1) The growth inhibition by P18 was investigated on Gram-positive and Gram-negative bacteria. Shin et al. 1999 (loc.cit.) had already detected an inhibition on the model organisms Escherichia coli and Bacillus subtilis within a period up to 18 hours.
(§2) The growth medium used for this was LB medium as complex medium for the organisms Escherichia coli, Bacillus subtilis and Brevibacterium epidermidis. The medium comprised 10 g of trypton, 5 g of yeast extract and 10 g of NaCl per liter.
(§3) The growth test was carried out as follows: A shake flask with medium was inoculated with Escherichia coli, Bacillus subtilis or Brevibacterium epidermidis and incubated with shaking overnight at 30° C. and 200 rpm. A 96-well microtiter plate was filled with in each case 100 μl LB medium and inoculated with E.-coli, B.-subtilis or B. epidermidis suspensions of the overnight culture. The bacteria suspension was adjusted at the start of the experiment to an optical density, measured at 620 nm, of about 0.02. The concentrates of the P18 inhibitor solutions were 1 mM in water.
(§4) The growth of the following mixtures was compared by measuring the optical density:
(§5) bacteria suspension without the addition of an inhibitor;
(§6) bacteria suspension and addition of an aqueous P18 solution with a final concentration of 25 μM. The aqueous P18 solution had been freshly prepared.
(§7) The growth was observed over a period of 40 hours by measuring the optical density. […] The growth of Gram-positive bacteria was inhibited initially.

Bacillus subtilis = experiment: as above; assay type: cell-based; settings: for optical density at 620 nm: B. subtilis suspension, 25 μM P18 solution, mean of 8 mixtures
Protocol: as §1, §2, §3, §4, §5, §6, §7

Escherichia coli = experiment: Long-term stability of P18 (2 weeks at 37° C.), detected through inhibition of the growth of Escherichia coli; assay type: cell-based; settings: for optical density at 620 nm: 25 μM
Protocol: The long-term stability of P18 was observed over a period of 2 weeks. For this, a 1 mM P18 solution in water was incubated at 37° C. over the entire period. At the start of the experiment and then on these two weeks, the antimicrobial activity was detected through inhibition of the growth of Escherichia coli. The growth medium used here was LB medium as complex medium. The medium comprised 10 g of trypton, 5 g of yeast extract and 10 g of NaCl per liter.
The growth test was carried out as follows: A shake flask of LB medium was inoculated with Escherichia coli and incubated overnight with shaking at 37° C. and 200 rpm. A 96-well microtiter plate was filled with in each case 100 μl of LB medium and inoculated with E. coli suspension of the overnight culture. The E. coli suspension was adjusted at the start of the experiment to an optical density, measured at 620 nm, of about 0.02. The concentrates of the P18 inhibitor solutions were 1 mM in water.
as §4
(§8) E. coli suspension without the addition of an inhibitor.
E. coli suspension and addition of an aqueous P18 solution with a final concentration of 25 μM. The aqueous P18 solution had been freshly prepared.
E. coli suspension and addition of an aqueous P18 solution with a final concentration of 25 μM. The aqueous stock solution had been incubated for 2 weeks at 37° C.
The growth was observed over a period of 40 hours by measuring the optical density.

E. coli cells = experiment: Biodegradability of P18: chymotrypsin digestion, then antimicrobial activity on E. coli cells; assay type: cell-based, Escherichia coli; settings: for optical density at 620 nm in two independent experiments: aqueous P18 solution 10 μM, undigested, cell gives both experiments
Protocol: Firstly, the peptide P18 was digested by adding chymotrypsin (from bovine pancreas, Sigma). For this, a 1 mM P18 solution was prepared and treated in accordance with the manufacturer's instructions. The samples were incubated for 16 hours at 37° C. The negative control used was a sample of a P18 solution without addition of chymotrypsin or a control solution which comprised only chymotrypsin, but no P18. The antimicrobial activity of P18 on E. coli cells was then investigated. The test was carried out as described in Example 3.
as §4, §8
E. coli suspension and addition of an aqueous P18 solution with a final concentration of 10 μM. The P18 solution had been stored beforehand for 16 hours at 37° C.
E. coli suspension and addition of an aqueous P18 solution with a final concentration of 10 μM. The P18 solution had been stored beforehand in accordance with the manufacturer's instructions for 16 hours at 37° C. and treated with chymotrypsin.
E. coli suspension and addition of an aqueous chymotrypsin solution which comprised, as control, the same amount of chymotrypsin as the P18 solution which was digested with chymotrypsin. This solution too had been stored beforehand for 16 hours at 37° C. This mixture was chosen in order to exclude an antimicrobial effect of the chymotrypsin.
The growth was observed over a period of 16 hours by measuring the optical density.

## KWKLFKKIPKFLHLAKKF-NH2 [P18, KWKLFKKIPKFLHLAKKF-NH2]
[1]; 25 μM, within 40 hours
  growth of B. epidermidis (in words): achieved growth densities comparable with the noninhibited culture
[1]; incubation time 16 h
  optical density at 620 nm: 0.29
[1]; incubation time 24 h
  optical density at 620 nm: 0.56
[1]; incubation time 40 h
  optical density at 620 nm: 1.24
Bacillus subtilis; 25 μM, within 40 hours
  growth of B. subtilis (in words): achieved growth densities comparable with the noninhibited culture
Bacillus subtilis; incubation time 16 h
  optical density at 620 nm: 0.25
Bacillus subtilis; incubation time 24 h
  optical density at 620 nm: 0.96
Bacillus subtilis; incubation time 40 h
  optical density at 620 nm: 0.67
Escherichia coli; 1 mM solution in water, 2 weeks at 37° C.
  antimicrobial activity after storage (long-term stability): unchanged
Escherichia coli; fresh aqueous P18 solution, incubation time 0 h
  optical density at 620 nm: 0.098
Escherichia coli; fresh aqueous P18 solution, incubation time 16 h
  optical density at 620 nm: 0
Escherichia coli; fresh aqueous P18 solution, incubation time 24 h
  optical density at 620 nm: 0
Escherichia coli; fresh aqueous P18 solution, incubation time 40 h
  optical density at 620 nm: 0
Escherichia coli; stored aqueous P18 solution (2 weeks at 37° C.), incubation time 0 h
  optical density at 620 nm: 0.081
Escherichia coli; stored aqueous P18 solution (2 weeks at 37° C.), incubation time 16 h
  optical density at 620 nm: 0
Escherichia coli; stored aqueous P18 solution (2 weeks at 37° C.), incubation time 24 h
  optical density at 620 nm: 0
Escherichia coli; stored aqueous P18 solution (2 weeks at 37° C.), incubation time 40 h
  optical density at 620 nm: 0
E. coli cells; incubation time 0 h
  optical density at 620 nm in two independent experiments: 0-0
E. coli cells; incubation time 16 h
  optical density at 620 nm in two independent experiments: 0.01-0.09
E. coli cells; chymotrypsin, 16 hours at 37° C.
  biodegradability (protease digestion): digestion of P18 with a serine protease, such as, for example, chymotrypsin, is possible
